According to article PMC11352409, “Subtype-Specific Ligand Binding and Activation Gating in Homomeric and Heteromeric P2X Receptors” (Biomolecules, 2024):

Target: T1, human P2X2 receptors (Homo sapiens, UniProt Q9UBL9)
T1 construct: expressed in transfected cells
T1 sequence (Q9UBL9 1-404 isoform Q9UBL9-2): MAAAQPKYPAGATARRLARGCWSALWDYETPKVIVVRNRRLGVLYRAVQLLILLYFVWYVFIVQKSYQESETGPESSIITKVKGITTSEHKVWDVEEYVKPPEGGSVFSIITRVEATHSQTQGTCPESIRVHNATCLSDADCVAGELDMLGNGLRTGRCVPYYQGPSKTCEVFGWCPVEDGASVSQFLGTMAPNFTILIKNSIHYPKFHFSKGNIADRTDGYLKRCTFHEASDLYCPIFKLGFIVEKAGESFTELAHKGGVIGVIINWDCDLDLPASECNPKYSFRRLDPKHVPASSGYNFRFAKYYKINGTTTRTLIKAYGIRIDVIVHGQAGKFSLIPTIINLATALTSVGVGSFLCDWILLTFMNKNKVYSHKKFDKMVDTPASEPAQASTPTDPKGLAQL
Assay: Whole-cell patch-clamp concentration-activation, HEK293 cells stably expressing hP2X2
Type: cell-based
Description: Human P2X receptors were expressed from HEK293 cell lines containing an inducible promoter system (Flp-In-T-REx 293, Invitrogen, Waltham, MA, USA). The used cell lines were: hP2X2 B (RRID: AC line CVCL_D6U1), hP2X3 (RRID: AC line CVCL_D6U3), and hP2X2/3 (RRID: AC line CVCL_D6U2). The cells were cultured in MEM supplemented with non-essential amino acids (Gibco, Waltham, MA, USA), 10% FCS, and antibiotics, according to the manufacturer’s instructions. For stable cell lines, Flp-In-T-REx 293 cells were transfected using the calcium phosphate method with a mixture of plasmids (0.3 µg pcDNA5/FRT/TO P2X gene and 1.5 µg pOG44) and selected for hygromycin resistance. The cells were seeded on glass coverslips for electrophysiological measurements and used 24–48 h after tetracycline induction ([…]).
Membrane currents were recorded with a standard patch-clamp technique in the whole-cell configuration. The patch pipettes were pulled from borosilicate glass (ID 1.0 mm, OD 2.0 mm; VITROCOM, Mountain Lakes, NJ, USA) using a micropipette puller (P-97, Sutter Instrument, Novato, CA, USA). The pipettes were filled with intracellular solution containing (mM) 142 NaCl, 5 BAPTA, 5 EGTA, and 10 HEPES at pH 7.4. The pipette resistance was from 2.0 to 6.0 MΩ. The bath solution contained (mM) 142 NaCl, 10 EGTA, 10 HEPES, and 10 glucose at pH 7.4. To increase the speed of recovery from the hP2X3 receptors, we additionally used a bath solution containing (mM) 142 NaCl, 10 HEPES, 10 glucose, 2 CaCl2, and 1 MgCl2. The cells were lifted for recording from the chamber bottom by the patch pipette and positioned in front of the outlet of the application pipette.
Solutions switches were carried out with the application pipette that had three barrels (inner diameter ~600 µm, Warner Instruments) controlled by a step motor (SF-77B, Warner Instruments). The speed of the laminar solution flow out of the barrels was estimated to be 2–5 cm/s. One barrel contained a control solution and another was connected to a solution selector (Vici Valco Instruments), which allowed us to apply different test solutions by exchanging the solution during the interval (60 sec for P2X2 and P2X2/3 receptors, 180 s for P2X3 receptors) of applying the control solution. Cells expressing hP2X3 were washed with 3 Units/mL apyrase for 30 min to remove ATP. To ensure the comparability of the data points between each application, we rinsed hP2X3 with the following solution for 3 min after each ATP application (mM): 142 NaCl, 10 HEPES, 10 glucose, 2 CaCl2, and 1 MgCl2 at pH 7.4. After sufficient recovery, we switched to the bath solution for 10 s and then to the solution of interest. The speed of the switch around a whole cell was estimated to be below 10 ms by switching between different salt solutions.
The saturation of activation was determined with ATP at 100 µM. The currents were recorded with a HEKA EPC 10 amplifier in combination with the patchmaster software. The sampling rate was 10 kHz and the recordings were on-line filtered at 2.9 kHz using a four-pole Bessel filter. The currents were recorded at a constant holding potential of −50 mV and the series resistance was compensated with the patchmaster software up to 80%.
The concentration–activation relationships from whole-cell measurements in the HEK293 cells were obtained from the maximum currents during ATP application. These current amplitudes were normalised with respect to the current at saturating ATP (100 µM) and the resulting data points were fitted I/ImaxATP = Amp/(1 + (EC50/[X])^h) (1) with the Origin 2019® software using a non-linear curve fitting routine. I is the actual current amplitude and ImaxATP is the maximum current amplitude at saturating ATP. The amplitude Amp is the efficacy of the respective ligands. EC50 is the ligand concentration generating the half-maximum current and h is the respective Hill coefficient. [X] is the actual concentration of ATP to be tested. […]

Structure (SMILES)	Elevation of activation level on co-application with ATP (hP2X2, 10 µM α,βMe-fATP co-applied with 0.1 µM ATP, versus ATP alone)	Effect of ligand alone on current (hP2X2, α,βMe-fATP alone (10 µM))	Hill (hP2X2, Hill coefficient of concentration-activation fit)	Effect (Fold in ATP Potency) (hP2X2, relative to ATP) [fold]	Effect (Fold in ATP Efficacy) (hP2X2, relative to current at 100 µM ATP) [fold]	Agonist behaviour (current response) (hP2X2, result in words)	EC50 (hP2X2, whole-cell, -50 mV, divalent-cation-free bath with 10 mM EGTA, normalised to 100 µM ATP) [µM]
COCC[N+]1=C(C=CC=C2N(CCCCCC(=O)NCCCCCCSc3nc(N)c4ncn(C5OC(COP(=O)(O)CP(=O)(O)OP(=O)(O)O)C(O)C5O)c4n3)c3ccc(S(=O)(=O)O)cc3C2(C)C)C(C)(C)c2cc(S(=O)(=O)[O-])ccc21 (stereo not drawn) [α,βMe-fATP, 2-[DY-547P1]-AHT-α,βMe-ATP]	approximately 55%	no discernible effect					
COCC[N+]1=C(C=CC=C2N(CCCCCC(=O)NCCCCCCSc3nc(N)c4ncn(C5OC(COP(=O)(O)OP(=O)(O)OP(=O)(O)O)C(O)C5O)c4n3)c3ccc(S(=O)(=O)O)cc3C2(C)C)C(C)(C)c2cc(S(=O)(=O)[O-])ccc21 (stereo not shown) [fATP, 2-[DY-547P1]-AHT-ATP]			1.4 ± 0.1	0.2	1.0	full agonist	4.6 ± 0.3
